Several values for one entry are separate records, joined by “and”; a condition that tells them apart may be missing. Identical values can stand only once.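 Five compound concentrations were applied to cells in 96-well plates for 48 hours; endpoints were derived by simple linear interpolation of the resulting dose-response curve. At the GI50, growth is halved. TGI: concentration producing complete growth inhibition.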

Some test systems named below: SK-MEL-5 melanoma; MDA-MB-435; MDA-N; DU-145 prostate; HT29 colon; A498 renal; NCI/ADR-RES ovarian; KM12 colon; NCI-H522 lung; COLO 205 colon.
Holding throughout (assay): DTP human tumour cell line panel, 48 h

By TGI is commonly meant the concentration giving total growth inhibition. Low readings indicate greater sensitivity of the cells, high ones lower sensitivity of the cells. For the compound `CC(C)=CC1C(C(=O)OCc2cc3c(cc2Cl)OCO3)C1(C)C` (stereo not given), the TGI in the test on SK-MEL-5 melanoma is 34.2 µM; in the test on MDA-MB-435, above 100 µM; with MDA-N it was 81.5 µM; with DU-145 prostate, above 100 µM; in the test with HT29 colon, above 100 µM; in the test with A498 renal, above 100 µM. In addition, the TGI is above 100 µM with NCI/ADR-RES ovarian, above 100 µM in the test with KM12 colon and 44.2 µM with NCI-H522 lung.
Take `Cn1c2c(c3c(=O)[nH]ncc31)Cc1ccccc1-2`: the TGI with SK-MEL-5 melanoma was 34.9 µM; with COLO 205 colon, 54.3 µM; with MDA-MB-435, 35.1 µM; in the test with MDA-N, 34.8 µM; in the test with DU-145 prostate, 50.7 µM; with HT29 colon it was above 100 µM. Also, the TGI was 27.5 µM in the test with A498 renal, above 100 µM in the test with NCI/ADR-RES ovarian, 66.8 µM with KM12 colon and above 100 µM in the test on NCI-H522 lung.
Consider `Cc1n[nH]c(=O)n1-n1cccc1`, for which the TGI in the test on SK-MEL-5 melanoma, with COLO 205 colon, in the test on MDA-MB-435, in the test with MDA-N, in the test on DU-145 prostate and in the test on HT29 colon was above 100 µM each time. Also, the TGI in the test on A498 renal, in the test on NCI/ADR-RES ovarian, in the test on KM12 colon and in the test with NCI-H522 lung was above 100 µM throughout.
Turning to `BrC1(c2ccccc2)C[n+]2c(-c3ccccc3)cc(-c3ccccc3)cc2-c2ccccc21` (stereo not given), the TGI in the test on SK-MEL-5 melanoma turned out to be 0.366 µM; with COLO 205 colon, 0.318 µM; in the test on MDA-MB-435, 0.538 µM; in the test on MDA-N, 1.69 µM; with DU-145 prostate it was 13.2 µM; in the test on HT29 colon, 3.46 µM. Besides, the TGI with A498 renal was 9.32 µM; with NCI/ADR-RES ovarian, 65.5 µM; in the test with KM12 colon, 1.34 µM; in the test on NCI-H522 lung, 11.3 µM.
Take `CC(=O)c1c(-c2ccc(Cl)cc2)c(C#N)c(=S)n(C2OC(CO)C(O)C(O)C2O)c1C` (stereo not given): the TGI is above 100 µM with SK-MEL-5 melanoma; 95.1 µM in the test with COLO 205 colon; above 100 µM in the test with MDA-MB-435; 86.8 µM in the test with MDA-N; above 100 µM with DU-145 prostate; above 100 µM with HT29 colon. Also, the TGI in the test on A498 renal, with NCI/ADR-RES ovarian, with KM12 colon and in the test with NCI-H522 lung was above 100 µM each time.
Regarding `CC(C)Oc1cccc(N2C(CCc3c[nH]c4ccc(Br)cc34)=NS(=O)(=O)c3cnccc32)c1`, the TGI in the test with SK-MEL-5 melanoma was above 100 µM; in the test with COLO 205 colon, 41.9 µM; in the test on MDA-MB-435, above 100 µM; in the test with MDA-N, above 100 µM; in the test on DU-145 prostate it was above 100 µM; with HT29 colon it was above 100 µM. The TGI with A498 renal, in the test on NCI/ADR-RES ovarian, in the test with KM12 colon and in the test with NCI-H522 lung was above 100 µM throughout.
As for `O=c1[nH]c2c(Nc3c4ccccc4nc4ccccc34)c([N+](=O)[O-])c(Nc3c4ccccc4nc4ccccc34)c([N+](=O)[O-])c2[nH]1`, the TGI in the test with SK-MEL-5 melanoma is 4 µM; in the test with COLO 205 colon, 5.02 µM; in the test on MDA-MB-435, 7.29 µM; in the test with MDA-N it was 8.49 µM; in the test on DU-145 prostate it was 11.5 µM; in the test on HT29 colon, 3.11 µM. Further, the TGI came to 3.35 µM with A498 renal, 2.24 µM with NCI/ADR-RES ovarian, 12 µM in the test on KM12 colon and 2.82 µM with NCI-H522 lung.
For the compound `C/C(=N\NC(=S)NC(C)(C)C)c1nc2ncccc2[nH]1`, the TGI in the test on SK-MEL-5 melanoma is 14.1 µM; in the test on COLO 205 colon it was above 31.6 µM; in the test on MDA-MB-435 it was above 78.4 µM; in the test with MDA-N it was above 100 µM; with DU-145 prostate it was above 57.5 µM; in the test with HT29 colon it was above 100 µM. Further, the TGI with A498 renal is above 100 µM; in the test on NCI/ADR-RES ovarian, above 84.4 µM; in the test with KM12 colon it was above 100 µM; with NCI-H522 lung, 51.2 µM.
With `COc1ccc(O[C@H](CO)C[C@@H]2COC(C)(C)O2)cc1`, the total growth inhibition concentration (TGI) with SK-MEL-5 melanoma, with COLO 205 colon, with MDA-MB-435, in the test on MDA-N, in the test on DU-145 prostate and with HT29 colon was above 100 µM throughout. Besides, the TGI in the test on A498 renal, in the test with NCI/ADR-RES ovarian, in the test with KM12 colon and in the test on NCI-H522 lung was above 100 µM in each case.
Regarding `CC(C)OC(=O)C(NC(=O)C(CC(=O)OCc1ccccc1)NC(=O)OCc1ccccc1)NC(=O)C1C(C)(C)CCC1(C)C` (stereo not given), the TGI in the test with SK-MEL-5 melanoma was 27.1 µM; in the test on COLO 205 colon it was 9.27 µM; with MDA-MB-435, above 53.3 µM; in the test with MDA-N, 24.2 µM; with DU-145 prostate, above 52.4 µM; with HT29 colon, 14.3 µM. Besides, the TGI was found to be 4.37 µM in the test on A498 renal, 21.2 µM with NCI/ADR-RES ovarian, 34.9 µM in the test with KM12 colon and 24.1 µM with NCI-H522 lung.
Broadly, the GI50 is the concentration giving 50% growth inhibition. Take `COC(=O)C(Cc1ccccc1)NC(=O)C(CNC(=O)OCc1ccccc1)C(=O)OCc1ccccc1` (stereo not given): the GI50 was > 100 µM and 14.5 µM with SK-MEL-5 melanoma; > 100 µM and 44.5 µM in the test with MDA-MB-435. Further, the TGI in the test on SK-MEL-5 melanoma was > 100 µM and 31.4 µM; with COLO 205 colon it was above 100 µM; with MDA-MB-435 it was above 100 µM; in the test on MDA-N, above 100 µM; in the test on DU-145 prostate, above 100 µM; in the test on HT29 colon it was above 100 µM. Besides, the TGI in the test on A498 renal, in the test with NCI/ADR-RES ovarian, in the test on KM12 colon and in the test with NCI-H522 lung was above 100 µM each time.
With `COc1cc(C=O)cc(C=Nc2ccc(Br)cc2)c1O`, the total growth inhibition concentration (TGI) was 21.1 µM with SK-MEL-5 melanoma; 36.3 µM with COLO 205 colon; 32.5 µM in the test on MDA-MB-435; 35.7 µM with MDA-N; above 100 µM with DU-145 prostate; above 100 µM in the test with HT29 colon. Also, the concentration for total growth inhibition (TGI) is 40.7 µM in the test on A498 renal, above 100 µM in the test on NCI/ADR-RES ovarian, above 100 µM in the test on KM12 colon and 23.5 µM in the test with NCI-H522 lung.
Consider `Clc1[nH]nc2ccccc12`, for which the TGI in the test with SK-MEL-5 melanoma, in the test on COLO 205 colon, in the test on MDA-MB-435, with MDA-N, with DU-145 prostate and with HT29 colon was above 100 µM throughout. In addition, the total growth inhibition concentration (TGI) with A498 renal, in the test on NCI/ADR-RES ovarian, in the test on KM12 colon and in the test with NCI-H522 lung was above 100 µM each time.
Regarding `CC(C)CNP(=O)(NCC(C)C)Oc1ccc(CC(NC(=O)OCc2ccccc2)C(=O)OCc2ccccc2)cc1` (stereo not given), the TGI in the test on SK-MEL-5 melanoma came to 45.8 µM; with COLO 205 colon, 35.4 µM; with MDA-MB-435, 22.8 µM; in the test with MDA-N, 36 µM; with DU-145 prostate, 24.3 µM; with HT29 colon, 33.4 µM. In addition, the TGI in the test with A498 renal was 50.8 µM; with NCI/ADR-RES ovarian, above 100 µM; in the test on KM12 colon it was 38.3 µM; with NCI-H522 lung, 30.5 µM.
Turning to `CCOC(=O)N1CCNCCN(C(=O)OCC)CCNCC1`, the TGI with SK-MEL-5 melanoma, with COLO 205 colon, in the test on MDA-MB-435, in the test with MDA-N, in the test on DU-145 prostate and in the test on HT29 colon was above 100 µM each time. For the same compound, the TGI with A498 renal, in the test on NCI/ADR-RES ovarian and with NCI-H522 lung was above 100 µM in each case.
As to `O=[N+]([O-])/C=C/c1cc(Cl)c(/C=C/[N+](=O)[O-])cc1Cl`, the TGI in the test with SK-MEL-5 melanoma turned out to be 14.9 µM; in the test on COLO 205 colon, 4.5 µM; in the test with MDA-MB-435, 4.17 µM; in the test with MDA-N, 8.19 µM; in the test on DU-145 prostate, 7.96 µM; in the test with HT29 colon, 5.78 µM. Moreover, the TGI in the test on A498 renal is 14.2 µM; in the test with NCI/ADR-RES ovarian, above 25 µM; in the test on KM12 colon, above 24.6 µM.
With `O=C(Nc1cccc2ccccc12)c1cc2ccccc2oc1=O`, the TGI in the test with SK-MEL-5 melanoma, with COLO 205 colon, in the test with MDA-MB-435, with MDA-N, in the test with DU-145 prostate and in the test with HT29 colon was above 100 µM throughout. For the same compound, the TGI in the test on A498 renal, in the test on NCI/ADR-RES ovarian and with KM12 colon was above 100 µM throughout.
Consider `CCc1c(O)nc(Nc2nc3ccccc3[nH]2)[nH]c1=O`, for which the TGI in the test with SK-MEL-5 melanoma, with COLO 205 colon, in the test with MDA-MB-435, in the test on MDA-N, in the test with DU-145 prostate and in the test with HT29 colon was above 100 µM each time. The TGI with A498 renal, with NCI/ADR-RES ovarian and in the test on NCI-H522 lung was above 100 µM each time.
Consider `[N-]=[N+]=CC(=O)C1CCN(c2ccccc2)C1=O` (stereo not given), for which the TGI in the test with SK-MEL-5 melanoma, in the test on COLO 205 colon, in the test on MDA-MB-435, in the test on MDA-N, with DU-145 prostate and in the test with HT29 colon was above 10 µM throughout. Besides, the TGI in the test with A498 renal, in the test on NCI/ADR-RES ovarian and with KM12 colon was above 10 µM each time.
`CC1=NC(=N)N=C(C)C1N=Nc1ccc2nc(C)[nH]c2c1` (stereo not given): the TGI in the test on COLO 205 colon, in the test with MDA-MB-435, in the test with MDA-N, in the test on DU-145 prostate, with HT29 colon and in the test on A498 renal was above 100 µM throughout. The TGI in the test on NCI/ADR-RES ovarian, in the test with KM12 colon and in the test with NCI-H522 lung was above 100 µM each time.

Source of the values: PubChem BioAssay (NCI).
